In patent US11879140B2, “P21 mRNA targeting DNAzymes” (1E Therapeutics Ltd., priority 2020, dated 2024):
[invdT] = inverted (3'-3') thymidine

How the values were obtained:
[1] = test system: senescent human IMR-90 fibroblast cells; type: cell-based; conditions: increasing concentrations (FIGS. 6A-C, 12A-C)
Experimental: Human IMR-90, BJ, WI-38 fibroblasts and REC epithelial cells were obtained from ATCC and grown at 5% oxygen. IMR-90 and REC cells were maintained in DMEM medium comprising 100 units per ml of penicillin, […] of streptomycin and 10% fetal bovine serum. BJ and WI-38 cells were maintained in EMEM medium comprising 100 units per ml of penicillin, […] of streptomycin, 10% fetal bovine serum, 1% Pyruvate, 1% L-Glutamine, mLFs were isolated according to standard procedures [Seluanov, A., et al. J Vis Exp (2010) (44):2033] and grown at 5% oxygen. Cells were maintained in EMEM medium comprising 100 units per ml of penicillin, […] of streptomycin and 15% fetal bovine serum.
DNA damage induced senescence (DIS) was induced by etoposide treatment (E1383, Sigma) at a concentration of […] for IMR-90, BJ, and WI-38, 16 μM for mLF and 12.5 μM for REC for a duration of 48 hours. Cells acquired the senescence phenotype 7 days post treatment (determined by SA-beta-gal staining).
Oncogene Induced Senescence (OIS) was induced by means of retroviral infection with H-RasG12 (pLNCX2) at 5% oxygen. Retroviruses were packaged, and infections were performed as described below.
Replicative Induced Senescence (RIS) was induced by long-term passaging of the cells in tissue culture. Cells acquired the senescence phenotype after 40 population doublings.
Primary target cells (IMR-90, BJ, […]) were plated in 24-well plates at 100,000 cells per well. Cells were transfected with different concentrations of DNAzymes (as depicted in Table 2, below) using Lipofectamine™ 2000 (Invitrogen) according to manufacturer instructions. The percentage of survival was determined based on quantification of remaining adherent cells using PrestoBlue® reagent (A13262, Life Technologies Ltd.) relative to Lipofectamine™ only control and compared to Scramble DNAzyme (Dz_Scramble) [Scramble Arm (Scr A) sequence: ATCTTCCTFggctagctacaacgaCGCCTCTCC, SEQ ID NO: 5, or Scramble catalytic core (Scr B) sequence: AGGAGAACAacagtaactggcgacGGGATGAGG, SEQ ID NO: 86] treated cells, 3-6 days following transfection.

p21 mRNA = assay: Quantitative RT-PCR of p21 mRNA in senescent cells; type: cell-based, human; conditions: over 24 hours following treatment, 2000 nM (FIG. 5D)
Experimental: Total RNA was extracted from IMR-90 cells using NucleoSpin® RNA (Macherey-Nagel™), according to the manufacturer protocol. Complementary DNA was prepared using the M-MLV Reverse Transcriptase (Promega), according to the manufacturer protocol. Quantitative real-time PCR was performed using the SYBR Green PCR master-mix (Applied Biosystems) on a CFX96 Real-Time PCR System (Bio Rad). See primer sequences in Table 1, above.

human p21 mRNA = assay: In vitro cleavage assay of human p21 mRNA; type: biochemical; conditions: in vitro cleavage of p21 mRNA (SEQ ID NO: 1); RNA substrate 500 nM, 37° C. 60 min, agarose gel
From the text: Total RNA was isolates from senescent IMR-90 cells using Nucleospin® RNA kit (Macherey-Nagel™). cDNA was synthesized with gene-specific reverse primers using M-MLV Reverse Transcriptase (Promega), according to the manufacturer's protocol. To generate template for in vitro transcription (IVT) reaction, the cDNA was PCR amplified using KAPA Taq EXtra HotStart® ReadyMix™ PCR Kit (R&D). PCR product was run on 1.5% agarose TAE gel, the correct band size was cut and DNA was cleaned using Wizard® SV Gel and PCR Clean-Up System kit (Promega). IVT was performed using HiScribe™ T7 High Yield RNA Synthesis Kit (NEB). Samples were then treated with DNase I (New England Biolabs) and incubated for 15 minutes at 37° C. IVT product was run on 1.5% agarose TBE gel, the correct band size was cut and RNA was cleaned using QIAquick® Gel Extraction Kit (Qiagen). See primer sequences in Table 1, below.
RNA substrate was diluted with Molecular Biology Grade Water (Biological Industries) and used in in vitro cleavage assay. A 20 μl reaction system comprising RNA substrate (final concentration 500 nM), 2 μl 10× reaction buffer (50 mM Tris-HCl pH 7.4, 100 mM NaCl, 10 mM MgCl2) and 1 μl DNAzyme (10 μM) (as depicted in Table 2, below) was mixed. Reactions were incubated at 37° C. for 60 min. 2×RNA L.D. (Thermo Fisher) was added to each sample. Samples were heated at 70° C. for 30 sec, centrifuged and loaded onto 1.5% agarose TBE gels. Quantification was performed using Image Lab software (Bio Rad).

healthy C57/B6 mice = assay: In-vivo safety of DNAzyme in mice
Experimental: 8 weeks old male and female C57/BL6 were treated intranasally with DNAzyme 1670 for 14 days. DNAzyme was administered in three concentrations: 40, 200 and 1000 μg. PBS treated mice served as control. Body weight, viability, clinical signs and behavior were monitored daily. On day 14, blood was collected using cardiac puncture and mice were sacrificed thereafter. Blood analyses were performed by AML (Central Lab Services). Hematology was performed using Advia-2120 (Siemens Healthineers). Biochemistry was performed using COBAS® 6000 (Roche Diagnostics).

Row | Substance | Validated cleavage (human p21 mRNA) | also measured
1 | DNAzyme 985: SEQ ID NO: 36: GGGGGCGGtccgagccggacgaAGGGTATGT (GGGGGCGGTCCGAGCCGGACGAAGGGTATGT; DNA, backbone and methylation of C not given here) | validated for mediating cleavage of p21 mRNA | selectivity of killing, senescent versus growing IMR-90 cells [1]: wide range of selective doses; p21 mRNA knockdown (p21 mRNA): 73%
2 | DNAzyme 1670 comprising a 3′Inverted dT: DNAzyme 1670 (SEQ ID NO: 54) with a 3′ inverted dT modification (DNA GGGAAAGGAGGCTAGCTACAACGAAAGGGGGAG; DNA, all phosphodiester, 3' [invdT], methylation of C not given here; further chemistry not fully specified) | – | blood tests: complete blood count and biochemistry parameters (healthy C57/B6 mice; 2 week endpoint (FIGS. 13G-O)): safe profile; signs of pain or distress (healthy C57/B6 mice; 40, 200, 1000 micrograms intranasally daily for 2 weeks): no obvious signs of pain or distress; body weight between groups (healthy C57/B6 mice; 40, 200, 1000 micrograms intranasally daily for 2 weeks (FIG. 13F)): no significant differences
3 | DNAzyme 541: SEQ ID NO: 30: GCUCCCAGGggctagctacaacgaGAAGUCACC (DNA GCUCCCAGGGGCTAGCTACAACGAGAAGUCACC; DNA, backbone, methylation of C and T or U not given here) | validated for mediating cleavage of p21 mRNA | –
4 | DNAzyme 354: SEQ ID NO: 23: CGGTTCTGAggctagctacaacgaATGGCGCCT (DNA CGGTTCTGAGGCTAGCTACAACGAATGGCGCCT; DNA, backbone and methylation of C not given here) | validated for mediating cleavage of p21 mRNA | –
5 | DNAzyme 1524: SEQ ID NO: 48: GAGGGGCCAggctagctacaacgaGAGGGCAGG (DNA GAGGGGCCAGGCTAGCTACAACGAGAGGGCAGG; DNA, backbone and methylation of C not given here) | validated for mediating cleavage of p21 mRNA | –
6 | DNAzyme 495: SEQ ID NO: 29: GAAGTTCCAggctagctacaacgaCGCTCACGG (DNA GAAGTTCCAGGCTAGCTACAACGACGCTCACGG; DNA, backbone and methylation of C not given here) | validated for mediating cleavage of p21 mRNA | –
7 | DNAzyme 1467: SEQ ID NO: 46: TTCACAAGAggctagctacaacgaAGAGGGGGG (DNA TTCACAAGAGGCTAGCTACAACGAAGAGGGGGG; DNA, backbone and methylation of C not given here) | validated for mediating cleavage of p21 mRNA | –
8 | DNAzyme 1987: SEQ ID NO: 73: TGCAATGAAggctagctacaacgaTGGGGAGGG (DNA TGCAATGAAGGCTAGCTACAACGATGGGGAGGG; DNA, backbone and methylation of C not given here) | validated for mediating cleavage of p21 mRNA | –
9 | DNAzyme 1838: SEQ ID NO: 63: GGACCCTCAggctagctacaacgaCCCCACAGC (DNA GGACCCTCAGGCTAGCTACAACGACCCCACAGC; DNA, backbone and methylation of C not given here) | validated for mediating cleavage of p21 mRNA | –
10 | DNAzyme 1742: SEQ ID NO: 59: TCCAGTCCAggctagctacaacgaTGAGCTGGG (DNA TCCAGTCCAGGCTAGCTACAACGATGAGCTGGG; DNA, backbone and methylation of C not given here) | validated for mediating cleavage of p21 mRNA | –
11 | DNAzyme 1683: SEQ ID NO: 55: AGAGGGTAtccgagccggacgaGAAGGGAAA (DNA AGAGGGTATCCGAGCCGGACGAGAAGGGAAA; DNA, backbone and methylation of C not given here) | validated for mediating cleavage of p21 mRNA | –
12 | DNAzyme 1252: SEQ ID NO: 42: GGGGGTGAAggctagctacaacgaTTCATAACC (DNA GGGGGTGAAGGCTAGCTACAACGATTCATAACC; DNA, backbone and methylation of C not given here) | validated for mediating cleavage of p21 mRNA | –
13 | DNAzyme 974: SEQ ID NO: 35: GGGTATGTAggctagctacaacgaATGAGGAGG (GGGTATGTAGGCTAGCTACAACGAATGAGGAGG; DNA, backbone and methylation of C not given here) | validated for mediating cleavage of p21 mRNA | –
